Measurements published in patent US8435978B2, “Substituted sulfonamide compounds” (Gruenenthal GmbH, priority 2006, dated 2013).
Structures can show the parent of a compound that is named as a salt.

Tests used:
human B1R receptor = biological target: T1, human B1R receptor (Homo sapiens, UniProt P46663); assay: Functional study on the bradykinin receptor 1 (B1R), FLIPR Ca2+ assay, hB1R cells; type: cell-based; settings: CHO-K1, test substance 10 μM, agonist Lys-Des-Arg9-bradykinin 0.5 nM, % inhibition compared with the maximum achievable inhibition, read-out: B1R Antagonism, human [10 μM] % Inhibition
T1 construct: host or cells: CHO K1 cells (Chinese hamster ovary), stably transfected
T1 sequence (P46663 1-353): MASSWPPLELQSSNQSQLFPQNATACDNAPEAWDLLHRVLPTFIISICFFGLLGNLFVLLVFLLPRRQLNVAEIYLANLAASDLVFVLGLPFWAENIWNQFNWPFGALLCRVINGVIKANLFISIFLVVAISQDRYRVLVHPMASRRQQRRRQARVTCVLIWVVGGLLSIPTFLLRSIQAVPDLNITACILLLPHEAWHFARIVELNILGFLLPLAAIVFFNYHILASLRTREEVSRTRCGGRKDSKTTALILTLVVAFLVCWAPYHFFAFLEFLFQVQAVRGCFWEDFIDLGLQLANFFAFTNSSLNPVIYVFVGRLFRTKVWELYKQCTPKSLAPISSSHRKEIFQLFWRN
Method in brief: (§1)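 CHO K1 cells stably expressing human or rat B1R were loaded with Fluo-4 and read on a FLIPR (ex 488/em 540 nm, peak fluorescence). Test compounds at 10 μM were added first, then after 10 min agonist: Lys-Des-Arg9-bradykinin 0.5 nM for hB1R, Des-Arg9-bradykinin 100 nM for rB1R; % inhibition versus maximum inhibition.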

B1R receptor of the rat = biological target: T2, B1R receptor of the rat (Rattus norvegicus, UniProt P97583); assay: Functional study on the bradykinin receptor 1 (B1R), FLIPR Ca2+ assay, rB1R cells; type: cell-based; settings: CHO-K1, test substance 10 μM, agonist Des-Arg9-bradykinin 100 nM, % inhibition compared with the maximum achievable inhibition, read-out: B1R Antagonism, rat [10 μM] % Inhibition
T2 construct: host or cells: CHO K1 cells (Chinese hamster ovary), stably transfected
T2 sequence (P97583 1-337): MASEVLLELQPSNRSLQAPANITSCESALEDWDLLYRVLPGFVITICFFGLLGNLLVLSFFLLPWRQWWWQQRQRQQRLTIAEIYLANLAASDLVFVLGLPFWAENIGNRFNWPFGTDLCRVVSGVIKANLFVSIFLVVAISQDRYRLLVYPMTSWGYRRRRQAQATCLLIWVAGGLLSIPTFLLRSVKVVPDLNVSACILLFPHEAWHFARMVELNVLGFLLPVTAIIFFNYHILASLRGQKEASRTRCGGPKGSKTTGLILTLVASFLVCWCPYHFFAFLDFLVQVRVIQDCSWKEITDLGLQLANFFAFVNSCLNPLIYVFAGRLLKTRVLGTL
Method in brief: as §1

| inhibition at 10 µM (human B1R receptor) [%] | inhibition at 10 µM (B1R receptor of the rat) [%] | SMILES |
| --- | --- | --- |
| 106 | 99.8 | O=C(COCC1CCCN1S(=O)(=O)c1c(Cl)cc(Cl)cc1Cl)N1CCN(c2ccncc2)CC1 (stereo not shown) [Example 335, 1-(4-(pyridin-4-yl)piperazin-1-yl)-2-((1-(2,4,6-trichlorophenylsulfonyl)pyrrolidin-2-yl)methoxy)ethanone] |
| 12.5 | 98.7 | COc1cc(C)c(S(=O)(=O)N2CCCCC2COCC(=O)Nc2cc(-c3ccc(Cl)cc3)n[nH]2)c(C)c1 (stereo not shown) [Example 537, N-(3-(4-chlorophenyl)-1H-pyrazol-5-yl)-2-((1-(4-methoxy-2,6-dimethylphenylsulfonyl)piperidin-2-yl)methoxy)acetamide] |
| 102 | 98.6 | O=C(COCC1CCCCN1S(=O)(=O)c1c(Cl)cccc1Cl)N1CCN(c2ccccc2F)CC1 (stereo not shown) [Example 442, 2-((1-(2,6-dichlorophenylsulfonyl)piperidin-2-yl)methoxy)-1-(4-(2-fluorophenyl)piperazin-1-yl)ethanone] |
| 52.6 | 13.2 | O=C(COCC1CCCN1S(=O)(=O)c1ccc(Cl)c(Cl)c1)N1CCN(CCN2CCCCC2)CC1 (stereo not shown) [Example 72, 2-((1-(3,4-dichlorophenylsulfonyl)pyrrolidin-2-yl)methoxy)-1-(4-(2-(piperidin-1-yl)-ethyl)piperazin-1-yl)ethanone] |
| 58.7 | 80.1 | COc1ccc(S(=O)(=O)N2c3ccccc3CC2COCC(=O)Nc2cccc(CN3CCCCC3)c2)cc1 (stereo not shown) [Example 423, 2-((1-(4-methoxyphenylsulfonyl)indolin-2-yl)methoxy)-N-(3-(piperidin-1-ylmethyl)phenyl)acetamide] |

The remaining lines, values behind:

| SMILES | inhibition at 10 µM (human B1R receptor) [%] | inhibition at 10 µM (B1R receptor of the rat) [%] |
| --- | --- | --- |
| CN1CCN(Cc2ccc(CNC(=O)COCC3CCCN3S(=O)(=O)c3c(Cl)cc(Cl)cc3Cl)cc2)CC1 (stereo not shown) [Example 45, N-[4-(4-methyl-piperazin-1-ylmethyl)-benzyl]-2-[1-(2,4,6-trichloro-phenylsulfonyl)-pyrrolidin-2-ylmethoxy]-acetamide] | 69.1 | 92.4 |
| Cc1cccc(Cl)c1S(=O)(=O)N1CCC[C@H]1COCC(=O)N1CCC(CCN2CCCC2)CC1 [Example 161, (S)-2-((1-(2-chloro-6-methylphenylsulfonyl)pyrrolidin-2-yl)methoxy)-1-(4-(2-(pyrrolidin-1-yl)ethyl)piperidin-1-yl)ethanone hydrochloride] | 98.5 | 99.2 |
| O=C(COCC1CCCN1S(=O)(=O)c1c(Cl)cccc1Cl)N1CCN(CCc2ccccc2)CC1 (stereo not shown) [Example 326, 2-((1-(2,6-dichlorophenylsulfonyl)pyrrolidin-2-yl)methoxy)-1-(4-phenethylpiperazin-1-yl)ethanone] | 104 | 101 |
| CCN(Cc1ccncc1)C(=O)COCC1CCCN1S(=O)(=O)c1c(C)cc(OC)cc1C (stereo not shown) [Example 466, N-ethyl-2-((1-(4-methoxy-2,6-dimethylphenylsulfonyl)pyrrolidin-2-yl)methoxy)-N-(pyridin-4-ylmethyl)acetamide] | 92.5 | 99.7 |
| O=C(COCC1CCCCN1S(=O)(=O)c1ccc(Cl)c(Cl)c1)Nc1cccc(CN2CCCC2)c1 (stereo not shown) [Example 293, 2-((1-(3,4-dichlorophenylsulfonyl)piperidin-2-yl)methoxy)-N-(3-(pyrrolidin-1-ylmethyl)phenyl)acetamide] | 90.5 | -6.96 |
| CN(C(=O)COCC1Cc2ccccc2CN1S(=O)(=O)c1ccc(Cl)cc1Cl)C1CCN(Cc2ccccc2)C1 (stereo not shown) [Example 78, N-(1-benzyl-pyrrolidin-3-yl)-2-[2-(2,4-dichloro-phenylsulfonyl)-1,2,3,4-tetrahydro-isoquinolin-3-ylmethoxy]-N-methyl-acetamide] | 45.7 | 35.2 |
